From article PMC4140284, “Human UTY(KDM6C) Is a Male-specific N^ϵ-Methyl Lysyl Demethylase” (The Journal of Biological Chemistry, 2014)

Assays:
[1] = system: partially phosphorylated UTY(KDM6C); assay: 2OG turnover by 1H NMR, partially phosphorylated UTY(KDM6C); type: biochemical, human; settings: 10 μM, in 28 min
[2] = system: UTY(KDM6C) dephosphorylated in vitro using λ-phosphatase; assay: 2OG turnover by 1H NMR, dephosphorylated UTY(KDM6C); type: biochemical, human; settings: UTY(KDM6C) dephosphorylated with λ-phosphatase, 10 μM, in 28 min
UTY(KDM6C) [3] = assay: Inhibition of H3K27Me3 peptide demethylation, UTY(KDM6C); type: biochemical, human; settings: 10 μM inhibitor, 15 min preincubation, 20 min at 37 °C
Experimental: (§1) Reaction components were premixed in two batches ((i) enzyme, Fe(II), and ascorbate and (ii) 2OG and peptide), and reactions were initiated by mixing the enzyme and substrate mix. Reactions were incubated at 37 °C for the indicated times before being quenched with methanol in a 1:1 ratio.
(§2) For inhibition assays, the same enzyme/Fe(II)/ascorbate mixture was preincubated with 10 μM inhibitor for 15 min before the reaction was initiated by the addition of the peptide substrate solution. Reactions were quenched with 1:1 methanol after 20 min at 37 °C.
(§3) Product formation was assessed by MALDI-TOF MS. One microliter of quenched reaction was mixed with 1 μl of α-cyano-4-hydroxycinnamic acid and spotted onto a MALDI-TOF plate for analysis using a MALDI micro-MX mass spectrometer (Waters) in reflectron positive ion mode with pulse voltage 1250 V, detector voltage 2750 V, and mass suppression 1000 Da. Data were analyzed using MassLynx version 4.0. For inhibitor assays, inhibition levels were measured relative to an inhibitor-free reaction.

KDM6A [4] = molecular target: T1, KDM6A (Homo sapiens, UniProt O15550); assay: Inhibition of H3K27Me3 peptide demethylation, KDM6A; type: biochemical; settings: 10 μM inhibitor, 15 min preincubation, 20 min at 37 °C
T1 construct: KDM6B and KDM6A plasmids were used as described previously; made in house; host or cells: Escherichia coli BL21 (DE3)
T1 sequence (O15550 whole entry): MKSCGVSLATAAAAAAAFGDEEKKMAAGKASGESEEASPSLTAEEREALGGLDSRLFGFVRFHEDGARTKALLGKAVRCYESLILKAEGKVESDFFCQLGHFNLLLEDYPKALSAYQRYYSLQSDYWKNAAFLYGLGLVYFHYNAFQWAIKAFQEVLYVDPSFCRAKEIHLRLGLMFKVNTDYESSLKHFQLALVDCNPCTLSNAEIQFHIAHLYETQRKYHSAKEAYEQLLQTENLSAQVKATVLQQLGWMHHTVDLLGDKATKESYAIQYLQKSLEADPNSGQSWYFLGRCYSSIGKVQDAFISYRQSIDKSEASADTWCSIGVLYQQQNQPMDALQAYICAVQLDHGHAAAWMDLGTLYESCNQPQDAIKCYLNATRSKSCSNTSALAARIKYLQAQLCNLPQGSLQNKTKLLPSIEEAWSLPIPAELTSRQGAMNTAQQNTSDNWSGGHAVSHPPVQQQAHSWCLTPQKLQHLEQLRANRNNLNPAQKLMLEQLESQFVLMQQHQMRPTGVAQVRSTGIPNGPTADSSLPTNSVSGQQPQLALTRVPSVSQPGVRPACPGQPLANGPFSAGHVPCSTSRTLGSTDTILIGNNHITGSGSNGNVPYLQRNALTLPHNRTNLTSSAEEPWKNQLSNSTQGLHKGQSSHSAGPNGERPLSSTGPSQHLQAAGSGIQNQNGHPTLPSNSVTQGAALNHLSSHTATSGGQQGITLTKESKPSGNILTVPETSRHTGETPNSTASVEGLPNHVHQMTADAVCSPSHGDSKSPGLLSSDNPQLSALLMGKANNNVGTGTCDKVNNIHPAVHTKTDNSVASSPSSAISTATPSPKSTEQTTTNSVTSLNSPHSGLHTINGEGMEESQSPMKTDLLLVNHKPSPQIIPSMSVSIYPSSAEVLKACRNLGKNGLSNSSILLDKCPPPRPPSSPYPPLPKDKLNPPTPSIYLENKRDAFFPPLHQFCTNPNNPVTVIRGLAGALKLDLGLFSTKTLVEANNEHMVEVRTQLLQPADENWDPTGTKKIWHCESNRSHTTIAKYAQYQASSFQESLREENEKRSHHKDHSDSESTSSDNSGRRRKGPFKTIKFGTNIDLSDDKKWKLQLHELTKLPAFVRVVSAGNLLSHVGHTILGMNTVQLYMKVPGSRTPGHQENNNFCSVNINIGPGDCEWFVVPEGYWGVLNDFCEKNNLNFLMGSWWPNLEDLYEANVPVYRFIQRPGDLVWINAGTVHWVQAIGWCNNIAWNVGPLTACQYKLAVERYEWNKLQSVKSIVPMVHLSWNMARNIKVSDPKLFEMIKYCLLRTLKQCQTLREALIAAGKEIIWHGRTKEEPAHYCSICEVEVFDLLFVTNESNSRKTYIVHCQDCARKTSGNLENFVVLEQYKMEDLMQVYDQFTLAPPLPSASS
Experimental: as §1, §2, §3

[5] = system: H3K27Me3 levels in HeLa cells; assay: Immunofluorescence of global H3K27Me3 levels on overexpression in HeLa cells; type: cell-based; settings: exogenous overexpression in HeLa cells
Experimental: For cell-based experiments, HEK 293T and HeLa cells were cultured at 37 °C and 5% CO2 in DMEM (Lonza) supplemented with 10% fetal bovine serum (FBS) (Invitrogen) and 1% Glutamax (Invitrogen). For microscopy, HeLa cells were seeded into 96-well clear bottom optical grade plates (BD Biosciences) at 8000 cells/well and allowed to settle overnight. Transfections were carried out the next day. For each well, 0.1 μg of plasmid and 0.25 μl of Lipofectamine 2000 (Invitrogen) were each incubated in 25 μl of Opti-MEM (Invitrogen) for 5 min at room temperature. The two solutions were then mixed gently but thoroughly and incubated for 20 min at room temperature. The mixture was added to the cells in 50 μl of fresh medium. Four hours later, the medium was changed, and the cells were incubated for a further 24 h before fixation. Cells were fixed in 4% (v/v) aqueous formaldehyde for 20 min, permeabilized in 0.5% Triton X-100 in phosphate-buffered saline (PBS) for 8 min, and blocked in 3% (w/v) FBS in PBS for 1 h with a PBS wash between each step. The primary antibodies were then added to the cells in blocking solution. […] Luciferase activity was measured using the Promega Dual-Luciferase Reporter Assay System on a Promega GloMax 20/20 luminometer. Readings were normalized to a Renilla luciferase control that was co-transfected with all samples. […]

KDM6B = molecular target: T2, KDM6B (Homo sapiens, UniProt O15054); assay: Demethylation of histone peptide by MALDI-TOF MS, KDM6B; type: biochemical; settings: KDM6B positive control
T2 construct: KDM6B and KDM6A plasmids were used as described previously; made in house; host or cells: Escherichia coli BL21 (DE3)
T2 sequence (O15054 whole entry): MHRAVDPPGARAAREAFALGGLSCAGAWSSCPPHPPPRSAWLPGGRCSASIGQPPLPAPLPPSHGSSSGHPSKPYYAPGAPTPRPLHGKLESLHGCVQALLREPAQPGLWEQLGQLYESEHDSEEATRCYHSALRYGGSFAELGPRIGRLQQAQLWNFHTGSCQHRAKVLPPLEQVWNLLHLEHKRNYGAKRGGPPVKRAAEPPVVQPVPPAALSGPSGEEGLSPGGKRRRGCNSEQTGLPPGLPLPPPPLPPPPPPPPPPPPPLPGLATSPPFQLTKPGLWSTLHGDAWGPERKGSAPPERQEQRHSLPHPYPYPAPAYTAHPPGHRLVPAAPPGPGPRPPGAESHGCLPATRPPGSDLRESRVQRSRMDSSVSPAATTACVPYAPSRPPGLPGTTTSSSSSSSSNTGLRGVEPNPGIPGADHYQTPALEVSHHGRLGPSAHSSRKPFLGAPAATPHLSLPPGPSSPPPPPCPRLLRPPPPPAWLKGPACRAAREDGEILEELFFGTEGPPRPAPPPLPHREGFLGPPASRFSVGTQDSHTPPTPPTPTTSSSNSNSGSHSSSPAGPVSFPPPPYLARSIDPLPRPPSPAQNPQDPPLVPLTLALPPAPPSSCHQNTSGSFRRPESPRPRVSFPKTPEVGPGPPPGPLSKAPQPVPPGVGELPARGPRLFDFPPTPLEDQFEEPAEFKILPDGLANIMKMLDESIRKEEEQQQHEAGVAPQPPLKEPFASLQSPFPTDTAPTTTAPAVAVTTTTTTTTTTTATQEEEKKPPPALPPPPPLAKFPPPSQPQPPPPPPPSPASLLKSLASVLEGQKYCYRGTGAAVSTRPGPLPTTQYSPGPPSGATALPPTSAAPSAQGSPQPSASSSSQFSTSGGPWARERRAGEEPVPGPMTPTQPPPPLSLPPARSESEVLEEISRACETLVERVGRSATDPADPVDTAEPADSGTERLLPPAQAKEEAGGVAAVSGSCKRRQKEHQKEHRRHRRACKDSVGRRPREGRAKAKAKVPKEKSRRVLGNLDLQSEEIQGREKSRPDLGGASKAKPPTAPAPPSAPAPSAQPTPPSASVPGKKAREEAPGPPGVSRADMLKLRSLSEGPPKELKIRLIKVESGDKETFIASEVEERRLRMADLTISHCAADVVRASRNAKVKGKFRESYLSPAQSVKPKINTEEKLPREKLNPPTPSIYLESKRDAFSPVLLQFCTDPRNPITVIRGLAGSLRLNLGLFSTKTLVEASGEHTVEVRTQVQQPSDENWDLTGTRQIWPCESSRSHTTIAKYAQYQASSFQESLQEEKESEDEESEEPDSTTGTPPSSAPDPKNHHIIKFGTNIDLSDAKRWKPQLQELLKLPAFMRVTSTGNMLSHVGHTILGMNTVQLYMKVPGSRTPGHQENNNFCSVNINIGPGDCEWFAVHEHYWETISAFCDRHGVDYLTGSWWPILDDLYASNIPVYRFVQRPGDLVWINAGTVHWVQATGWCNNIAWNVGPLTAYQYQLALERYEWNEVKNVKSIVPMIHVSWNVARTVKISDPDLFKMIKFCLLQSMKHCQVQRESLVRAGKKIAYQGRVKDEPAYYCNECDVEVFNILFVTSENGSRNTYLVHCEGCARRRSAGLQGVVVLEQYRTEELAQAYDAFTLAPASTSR
Experimental: as §1, §3
(§4) With catalytically active UTY(KDM6C) in hand, we then investigated whether a longer UTY(KDM6C) construct (residues 818–1347, herein UTY(KDM6C)) can act as a KDM. UTY(KDM6C) was incubated for 1 h at 37 °C with histone peptide fragments corresponding to known mono-, di-, and tri- lysine methylation sites of histone 3 (at Lys^4, Lys^9, Lys^27, and Lys^36) and histone 4 (at Lys^20) (Table 3). Demethylation was assessed by a mass spectrometric (MS) assay with mass shifts of −14 and −28 Da, corresponding to mono- and didemethylation, respectively. […]

KDM6A [6] = molecular target: T1, KDM6A; assay: Demethylation of histone peptide by MALDI-TOF MS, KDM6A; type: biochemical; settings: KDM6A positive control
Experimental: as §1, §3, §4

UTY(KDM6C) [7] = assay: Demethylation of histone peptides by MALDI-TOF MS, UTY(KDM6C); type: biochemical, human; settings: UTY(KDM6C) 818–1347, 1 h at 37 °C
Experimental: as §1, §3
With catalytically active UTY(KDM6C) in hand, we then investigated whether a longer UTY(KDM6C) construct (residues 818–1347, herein UTY(KDM6C)) can act as a KDM. UTY(KDM6C) was incubated for 1 h at 37 °C with histone peptide fragments corresponding to known mono-, di-, and tri- lysine methylation sites of histone 3 (at Lys^4, Lys^9, Lys^27, and Lys^36) and histone 4 (at Lys^20) (Table 3). Demethylation was assessed by a mass spectrometric (MS) assay with mass shifts of −14 and −28 Da, corresponding to mono- and didemethylation, respectively. […] The predominant product was H3K27Me2, resulting from a single demethylation; a smaller amount of H3K27Me1 was observed as a result of didemethylation (Fig. 3C). Demethylation was dependent on the presence of Fe(II)/2OG.

KDM6 = assay: Demethylation of histone peptide by 1H NMR, KDM6; type: biochemical, human; settings: KDM6 catalyzed
Text: The total echo time was 48 ms.

## O=C(O)CCC(=O)C(=O)O [2OG, 2-oxoglutarate]
[1]
  succinate produced: 7 ± 0.5 nmol
[2]
  succinate produced: 7 ± 0.5 nmol

## O=C(O)CCNc1cc(N2CCc3ccccc3CC2)nc(-c2ccccn2)n1 [GSK-J1]
UTY(KDM6C) [3]
  potency rank among nine inhibitors: most potent inhibitor
UTY(KDM6C) [3]; H3K27Me3 peptide, MALDI MS
  inhibition of demethylation: inhibition of UTY(KDM6C) activity by GSK-J1 was observed
KDM6A [4]
  potency rank among nine inhibitors: most potent inhibitor

## FL WT KDM6B: full-length wild type KDM6B, positive control
[5]
  change in global H3K27Me3 level: a decrease was observed

## GGKAPRKQLATKAARKMe3SAPATGG [23-residue histone peptide containing H3K27Me3 (histone 3, 12–34)]
KDM6B
  demethylation: demethylation was observed
KDM6A [6]
  demethylation: demethylation was observed
UTY(KDM6C) [7]
  demethylation: catalyzes the demethylation
UTY(KDM6C) [7]; didemethylation, smaller amount
  minor demethylation product: H3K27Me1
UTY(KDM6C) [7]; listed as H3K27Me3 peptide (histone 3, 12–34)
  demethylation: demethylation was observed
UTY(KDM6C) [7]; single demethylation
  predominant demethylation product: H3K27Me2

## GGKAPRKQLATKAARKMe3SAPATGGV [24-residue histone peptide containing H3K27Me3]
KDM6
  demethylation: KDM6 catalyzed demethylation
